From US6838436B1, “Inhibitors of proteasomal activity for stimulating bone growth” (Osteoscreen Inc., priority 1998, dated 2005)

System: hair follicles of skin explants
Assay: Skin explants from mice during telogen (Example 16)
Format: cell-based
Conditions: 72 hours
Text: In the untreated control explants, the follicles were few and small.

In the case of Nc1cc(N2CCCCC2)nc(N)[n+]1[O-] [Minoxidil], the “concentrations causing these changes, relative to the proteasome inhibitors” value is reported as 10,000 fold.
